According to PubChem BioAssay AID1259407 (Chemical Carcinogenesis Research Information System (CCRIS), 2018):
The source made the active and inactive calls. No rule for the calls is given here.

Test system: CCRIS mutagenicity, Ames/micronucleus/aberration tests
Assay: CCRIS mutagenicity studies
[1] = Test System: AMES SALMONELLA TYPHIMURIUM, Strain/Indicator: TA100, Metabolic Activation: NONE, Method: PREINCUBATION

In the case of `CC(=O)N[C@@H]1[C@@H](O[C@@H]2O[C@H](C(=O)O)[C@@H](O[C@@H]3O[C@H](CO)[C@@H](O)[C@H](O[C@@H]4O[C@H](C(=O)O)[C@@H](O)[C@H](O)[C@H]4O)[C@H]3NC(C)=O)[C@H](O)[C@H]2O)[C@H](O)[C@@H](CO)O[C@H]1O`, the mutagenic call (Test System: AMES SALMONELLA TYPHIMURIUM, Strain/Indicator: TA98, Metabolic Activation: NONE) is reported as “inactive; negative”, the mutagenic call (Test System: AMES SALMONELLA TYPHIMURIUM, Strain/Indicator: TA98, Metabolic Activation: NONE, Method: PREINCUBATION) is reported as “inactive; negative” and the mutagenic call (Test System: AMES SALMONELLA TYPHIMURIUM, Strain/Indicator: TA98, Metabolic Activation: RAT, LIVER, S-9, PHENOBARBITAL AND 5,6-BENZOFLAVONE, Method: PREINCUBATION) is reported as “inactive; negative”. For the same molecule, the mutagenic call (Test System: AMES SALMONELLA TYPHIMURIUM, Strain/Indicator: TA98, Metabolic Activation: RAT, LIVER, S-9, Method: PREINCUBATION) was “inactive; negative”, the mutagenic call (Test System: AMES SALMONELLA TYPHIMURIUM, Strain/Indicator: TA98, Metabolic Activation: S-9) was “inactive; negative” and the mutagenic call (Test System: AMES SALMONELLA TYPHIMURIUM, Strain/Indicator: TA100, Metabolic Activation: NONE) was “inactive; negative”. The mutagenic call [1] was “inactive; negative”, the mutagenic call (Test System: AMES SALMONELLA TYPHIMURIUM, Strain/Indicator: TA100, Metabolic Activation: RAT, LIVER, S-9, PHENOBARBITAL AND 5,6-BENZOFLAVONE, Method: PREINCUBATION) was “inactive; negative” and the mutagenic call (Test System: AMES SALMONELLA TYPHIMURIUM, Strain/Indicator: TA100, Metabolic Activation: RAT, LIVER, S-9, Method: PREINCUBATION) was “inactive; negative”. The mutagenic call (Test System: AMES SALMONELLA TYPHIMURIUM, Strain/Indicator: TA100, Metabolic Activation: S-9) was “inactive; negative”, the mutagenic call (Test System: AMES SALMONELLA TYPHIMURIUM, Strain/Indicator: TA1535, Metabolic Activation: NONE) was “inactive; negative” and the mutagenic call (Test System: AMES SALMONELLA TYPHIMURIUM, Strain/Indicator: TA1535, Metabolic Activation: NONE, Method: PREINCUBATION) was “inactive; negative”. For the same molecule, the mutagenic call (Test System: AMES SALMONELLA TYPHIMURIUM, Strain/Indicator: TA1535, Metabolic Activation: RAT, LIVER, S-9, PHENOBARBITAL AND 5,6-BENZOFLAVONE, Method: PREINCUBATION) was “inactive; negative”, the mutagenic call (Test System: AMES SALMONELLA TYPHIMURIUM, Strain/Indicator: TA1535, Metabolic Activation: RAT, LIVER, S-9, Method: PREINCUBATION) was “inactive; negative” and the mutagenic call (Test System: AMES SALMONELLA TYPHIMURIUM, Strain/Indicator: TA1535, Metabolic Activation: S-9) was “inactive; negative”. For the same molecule, the mutagenic call (Test System: AMES SALMONELLA TYPHIMURIUM, Strain/Indicator: TA1537, Metabolic Activation: NONE) was “inactive; negative”, the mutagenic call (Test System: AMES SALMONELLA TYPHIMURIUM, Strain/Indicator: TA1537, Metabolic Activation: NONE, Method: PREINCUBATION) was “inactive; negative” and the mutagenic call (Test System: AMES SALMONELLA TYPHIMURIUM, Strain/Indicator: TA1537, Metabolic Activation: RAT, LIVER, S-9, PHENOBARBITAL AND 5,6-BENZOFLAVONE, Method: PREINCUBATION) was “inactive; negative”. For the same molecule, the mutagenic call (Test System: AMES SALMONELLA TYPHIMURIUM, Strain/Indicator: TA1537, Metabolic Activation: RAT, LIVER, S-9, Method: PREINCUBATION) was “inactive; negative”, the mutagenic call (Test System: AMES SALMONELLA TYPHIMURIUM, Strain/Indicator: TA1537, Metabolic Activation: S-9) was “inactive; negative” and the mutagenic call (Test System: E. COLI, Strain/Indicator: WP2 UVRA, Metabolic Activation: NONE) was “inactive; negative”. The mutagenic call (Test System: E. COLI, Strain/Indicator: WP2 UVRA, Metabolic Activation: S-9) was “inactive; negative”, the mutagenic call (Test System: E.COLI, Strain/Indicator: WP2 UVRA, Metabolic Activation: NONE, Method: PREINCUBATION) was “inactive; negative” and the mutagenic call (Test System: E.COLI, Strain/Indicator: WP2 UVRA, Metabolic Activation: RAT, LIVER, S-9, PHENOBARBITAL AND 5,6-BENZOFLAVONE, Method: PREINCUBATION) was “inactive; negative”. The mutagenic call (Test System: E.COLI, Strain/Indicator: WP2 UVRA, Metabolic Activation: RAT, LIVER, S-9, Method: PREINCUBATION) was “inactive; negative”.
In the case of `C[Si](C)(C)CN(N=O)C(N)=O`, the mutagenic call [1] is reported as “active; positive”, the mutagenic call (Test System: CHINESE HAMSTER V-79, Strain/Indicator: V-79/OUABAIN, Metabolic Activation: NONE) is reported as “active; positive” and the mutagenic call (Test System: E. COLI, Strain/Indicator: H/R30R, Metabolic Activation: NONE, Method: PREINCUBATION) is reported as “active; positive”. The mutagenic call (Test System: E. COLI, Strain/Indicator: HS30R UVRA, Metabolic Activation: NONE, Method: PREINCUBATION) was “active; positive”, the mutagenic call (Test System: E. COLI, Strain/Indicator: NG30 RECA, Metabolic Activation: NONE, Method: PREINCUBATION) was “active; positive” and the mutagenic call (Test System: E. COLI, Strain/Indicator: O16 POLA, Metabolic Activation: NONE, Method: PREINCUBATION) was “active; positive”.
`Cn1cnc(N=O)c1-c1ccccc1` was tested, and the mutagenic call (Test System: AMES SALMONELLA TYPHIMURIUM, Strain/Indicator: TA100, Metabolic Activation: NONE, Method: STANDARD PLATE) was “active; positive”.
For `CCCN(N=O)C(N)=O`, the mutagenic call (Test System: AMES SALMONELLA TYPHIMURIUM, Strain/Indicator: TA1535, Metabolic Activation: NONE, Method: STANDARD PLATE) was “active; positive”, the mutagenic call (Test System: CHINESE HAMSTER V-79, Strain/Indicator: V-79/6-THIOGUANINE, Metabolic Activation: NONE, Method: FLASK ASSAY) was “active; positive” and the mutagenic call (Test System: E. COLI B, Strain/Indicator: H/R30R, Metabolic Activation: NONE) was “active; positive”. For the same molecule, the mutagenic call (Test System: E. COLI B, Strain/Indicator: HS30R, Metabolic Activation: NONE) was “active; positive”, the mutagenic call (Test System: E. COLI, Strain/Indicator: WP2, Metabolic Activation: NONE, Method: STANDARD PLATE) was “active; positive” and the mutagenic call (Test System: E. COLI, Strain/Indicator: WP2 UVRA, Metabolic Activation: NONE, Method: STANDARD PLATE) was “active; positive”.
